Data on 15 compounds can be found in US6958318B2, “Recombinant bacterial cells for delivery of PNP to tumor cells” (The UAB Research Foundation, priority 1993, dated 2005).

“And” between values parts separate entries of the source, which are not always exact repeats. Equal entries are not always repeated. “Also recorded” adds a separate entry of the source. Where two headings read alike, the source gives them in different places.

For one data set, the target named is T1, human PNP (Homo sapiens, UniProt P00491).
T1 sequence (P00491 1-289): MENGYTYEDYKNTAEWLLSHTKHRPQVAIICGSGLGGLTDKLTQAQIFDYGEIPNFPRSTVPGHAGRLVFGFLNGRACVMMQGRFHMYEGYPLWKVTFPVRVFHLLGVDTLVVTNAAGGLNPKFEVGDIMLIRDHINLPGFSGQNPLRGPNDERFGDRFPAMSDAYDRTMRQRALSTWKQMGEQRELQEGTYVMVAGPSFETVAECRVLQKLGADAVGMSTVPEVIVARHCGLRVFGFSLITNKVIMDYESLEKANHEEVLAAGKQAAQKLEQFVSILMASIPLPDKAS
Briefly: Cleavage of purine analog nucleosides by human PNP (HPLC). Type of data set: biochemical. As to conditions: for Percent of substrate cleaved by Human PNP, 1 mM: substrate 1 mM.

The conditions of data set [1]: literature; cited from earlier work.
The next data set concerns the target E. coli PNP (Escherichia coli, UniProt P0ABP8). Type of data set: biochemical.
The subject of another data set is PNP transduced tumors. Type of data set: in vivo.
The next data set deals with D54-PNP tumors. Briefly: E. coli PNP-transduced D54 glioma tumors in nude mice. Type of data set: in vivo. As to conditions: previous studies. The procedure: Female athymic nude mice (nu/nu) were implanted sc with 2×10^7 cells of either D54 parental tumor cells (D54-wt) or D54 tumor cells that had been transduced with the E. coli PNP (D54-PNP). After the tumors had grown to approximately 150 mg, they were treated ip with either vehicle or 67 mg/kg of MeP-dR (IP) once a day for 3 days (days 6, 7 and 8 after implantation). The tumor sizes were measured twice a week after treatment.
A confirmation experiment was set up exactly as described above, except that animals were treated with two doses of MeP-dR (45 and 67 mg/kg) (FIGS. 10 and 11). The results of this experiment were similar (Table V). There were 8 of 10 complete regressions in mice bearing the D54-PNP tumors that were treated with 67 mg/kg of MeP-dR. In 4 mice the tumors subsequently returned and grew. There were still 4 of 10 tumor-free survivors 60 days after the treatment had stopped. […] There were 2 of 10 complete regressions and 3 partial responses. […] The delay in the time required to double twice due to treatment with MeP-dR was 5 to 6 days in the non-transduced tumors and greater than 24 days in transduced tumors. In this experiment, the growth rate of the D54-PNP tumors was considerably slower than it was in the first experiment. There was no change in the growth rate of the D54-wt tumors. The reason for the slow growth rate of the D54-PNP tumors in this experiment is not known. […] (In other words, if a tumor was too small to measure, it was not included in the average size). This means that the overall tumor regressions in the D54 PNP group are actually much more pronounced than they appear in FIGS. 8-11.

In data set [2] the test system is tumor cells transduced with the E. coli PNP. Briefly: Killing of PNP-transduced tumor cells in vitro by other prodrugs. Type of data set: cell-based. The source says:
In addition to MeP-dR, two other prodrugs suitable for E. coli PNP activation in tumor cells can be applied to the methodology of the present invention. These prodrugs are F-araA and 2-F-2′deoxyadenosine. […] As desired, this dose had no effect on control untransduced, tumor cells.

In the next data set the test system is D54 glioma tumors. Briefly: D54 tumors of mixed wild-type and transduced cells (80 to 20). As to conditions: in vivo.
[3] abbreviates: substrate 100 μM, 0.1 unit/ml enzyme, 25° C., 1 hour, stopped by boiling.
The mark [4] stands for this setting: 25° C., 1 hour, stopped by boiling.
Setting [5] is: 100 μM in the presence of 1 mM deoxycytidine.

E. coli PNP, sequence (P0ABP8 2-239): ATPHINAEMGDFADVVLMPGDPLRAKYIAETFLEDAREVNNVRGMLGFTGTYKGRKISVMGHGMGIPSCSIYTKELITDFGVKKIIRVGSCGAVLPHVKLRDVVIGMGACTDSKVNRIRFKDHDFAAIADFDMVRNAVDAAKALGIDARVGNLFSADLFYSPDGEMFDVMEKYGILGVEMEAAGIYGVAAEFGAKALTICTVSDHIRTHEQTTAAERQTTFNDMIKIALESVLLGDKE

As to `Nc1cc(Cl)c2ncn([C@@H]3O[C@H](CO)[C@@H](O)[C@H]3O)c2n1` [1-deaza-2-amino-6-Cl-purine-riboside, 2-amino-6-chloro-1-deazapurine riboside], the “Substrate quality for mammalian (human) PNP” value on human PNP (in words) is on record as “poor substrates”. The “Percent of substrate cleaved by Human PNP, 100 μM” value (“Percent … by Human PNP, 100 μM” below) at human PNP (setting [3]) was 0(88) Percent and 0(86) Percent. For the same compound, the “Percent of substrate cleaved by Human PNP, 1 mM” value (“Percent … by Human PNP, 1 mM” below) at human PNP (setting [4]) was 0(52) Percent and 0(47) Percent. Further, in data set [1], the “Toxicity of prodrug relative to its purine analog” value is on record as “much less toxic than their respective purine analogs”. Moreover, on E. coli PNP, the “Percent of substrate cleaved by E. coli PNP, 100 μM” value (from here on “Percent … by E. coli PNP, 100 μM”) is 62(87)16(23) Percent and 41(86)15(21) Percent; the “Percent of substrate cleaved by E. coli PNP, 1 mM” value (shortened to “Percent … by E. coli PNP, 1 mM”) was 62(87)16(23) Percent and 41(86)15(21) Percent; the “Substrate quality for bacterial (E. coli) PNP” value (from here on “Substrate quality for bacterial”) was “good substrates”.

Take `Nc1nc(F)nc2c1ncn2[C@@H]1O[C@H](CO)[C@@H](O)[C@H]1F` [2-F-2′-F-2′-deoxyadenosine]: at E. coli PNP, the “Percent … by E. coli PNP, 100 μM” value is recorded as 0(86) Percent; the “Percent … by E. coli PNP, 1 mM” value was 0(21) Percent; the “Substrate quality for bacterial” value is listed as “poor substrates”.

Turning to `C[C@H]1O[C@@H](n2cnc3c(N)nc(F)nc32)[C@H](O)[C@@H]1O` [2-F-5′-deoxyadenosine, 2-fluoro-5′-deoxyadenosine], the “Substrate quality for mammalian (human) PNP” value at human PNP (in words) is listed as “poor substrates”. For the same compound, the “Substrate quality for bacterial” value at E. coli PNP is recorded as “good substrates”.

For the compound `Nc1ncnc2c1ncn2[C@H]1CC[C@@H](CO)O1` [2′,3′-dideoxy adenosine, 2′,3′-dideoxyadenosine], the “Substrate quality for mammalian (human) PNP” value on human PNP (in words) is listed as “poor substrates”. The “Substrate quality for bacterial” value at E. coli PNP was “poor substrates”.

Take `Nc1ncnc2c1ncn2[C@@H]1O[C@H](CO)C[C@H]1O` [3′-deoxy adenosine, 3′-deoxyadenosine]: the “Substrate quality for mammalian (human) PNP” value on human PNP (in words) is “poor substrates”. Besides, the “Substrate quality for bacterial” value at E. coli PNP was “poor substrates”.

In the case of `NC[C@H]1O[C@@H](n2cnc3c(N)ncnc32)[C@H](O)[C@@H]1O` [5′-amino-5′-deoxyadenosine], the “Substrate quality for mammalian (human) PNP” value is “not cleaved” on human PNP (in words) and “poor substrates” on human PNP (in words, listed as 50-amino-50-deoxyadenosine). For the same compound, on E. coli PNP, the “Substrate quality for bacterial” value was “moderate substrates; also recorded: poorly cleaved”.

Turning to `NC(=O)[C@H]1O[C@@H](n2cnc3c(N)ncnc32)[C@H](O)[C@@H]1O` [5′-carboxamide of adenosine], on human PNP, the “Percent … by Human PNP, 100 μM” value is 0(81) Percent and 0(82) Percent; the “Substrate quality for mammalian (human) PNP” value is recorded as “poor substrates”. Further, the “Substrate quality for bacterial” value at E. coli PNP is listed as “poor substrates”.

In the case of `Nc1cc2ncn(C3O[C@H](CO)[C@@H](O)[C@H]3O)c2c(=O)[nH]1` (stereo partly shown) [7-ribosyl-3-deazaguanine], on human PNP (in words), the “Substrate quality for mammalian (human) PNP” value is “poor substrates”. Moreover, in data set [1], the “Toxicity of prodrug relative to its purine analog” value was “much less toxic than their respective purine analogs”. For the same compound, the “Substrate quality for bacterial” value on E. coli PNP is recorded as “good substrates”.

As to `OC[C@H]1OC(n2cnc3ncnc(S)c32)[C@H](O)[C@@H]1O` (stereo partly shown) [7-ribosyl-6-mercaptopurine], the “Substrate quality for mammalian (human) PNP” value on human PNP (in words) is on record as “poor substrates”.

Regarding `O=c1[nH]cnc2ncn(C3O[C@H](CO)[C@@H](O)[C@H]3O)c12` (stereo partly shown) [7-ribosyl-hypoxanthine, 7-ribosylhypoxanthine], the “Substrate quality for mammalian (human) PNP” value on human PNP (in words) is “moderate to good substrates”. Further, the “Substrate quality for bacterial” value on E. coli PNP is recorded as “moderate to good substrates”.

Turning to `Nc1nc(F)nc2c1ncn2[C@H]1C[C@H](O)[C@@H](CO)O1` [F-dAdo, 2-fluoro-2′-deoxyadenosine], on human PNP (in words), the “Substrate quality for mammalian (human) PNP” value was “poor substrates”. The Tolerability in mice entry with PNP transduced tumors (doses similar to MeP-dR) is reported as “without toxicity”. Besides, the “Anti-tumor effect on PNP transduced tumors in mice” value in the data set with PNP transduced tumors (mouse, in vivo) is on record as “strong anti-tumor effects”. Also, the “Activity against D54 glioma tumors expressing the E. coli PNP gene” value with D54-PNP tumors is “good activity”. For the same compound, the “Killing of PNP-transduced tumor cells in vitro” value in data set [2] is “high level killing”. Also, in data set [2] (setting [5]), the “Effect on control untransduced tumor cells” value is reported as “no effect” and the “Killing when as few as 1% of tumor cells express the gene” value was “kills cells transduced with the E. coli PNP”. Besides, the “Substrate quality for bacterial” value on E. coli PNP is on record as “good substrates”. The “Activity against tumors of wild-type and transduced cells at 80 to 20” value in the data set with D54 glioma tumors is “less active”.

As to `CC1(C)OC2C(C(N)=O)OC(n3cnc4c(N)ncnc43)C2O1` (stereo not shown) [isopropylidine of the 5′-carboxamide of adenosine], on human PNP, the “Percent … by Human PNP, 100 μM” value is 0(81) Percent and 0(82) Percent; the “Substrate quality for mammalian (human) PNP” value is “poor substrates”. Moreover, at E. coli PNP, the “Substrate quality for bacterial” value is reported as “poor substrates”.

Consider `Nc1ncnc2c1ncn2C1OC(CO)C(O)C1O` (stereo not shown) [xylosyl adenine], for which the “Percent … by Human PNP, 100 μM” value on human PNP (setting [3]) is 0(81) Percent and 0(82) Percent.

As to `Nc1ncnc2c1ncn2[C@H]1O[C@H](CO)[C@@H](O)[C@H]1O` [α-adenosine], the “Percent … by Human PNP, 100 μM” value on human PNP (# line: assay terminated by filtering and not by boiling) was 0(87**) Percent; on human PNP (setting [3]) it was 0(88) Percent and 0(86) Percent. Moreover, the “Substrate quality for mammalian (human) PNP” value on human PNP (in words) was “poor substrates; also recorded: not cleaved”. Moreover, the “Percent … by Human PNP, 1 mM” value at human PNP (setting [4]) is 0(50) Percent and 0(47) Percent. Moreover, at E. coli PNP, the “Substrate quality for bacterial” value is listed as “poorly cleaved”.

For the compound “xylosyl methylpurine [xylosylmethylpurine]”, the “Substrate quality for mammalian (human) PNP” value at human PNP (in words) is recorded as “poor substrates”. Besides, the “Percent … by Human PNP, 100 μM” value at human PNP (setting [3]) was 0(88) Percent and 0(86) Percent. On human PNP (setting [4]), the “Percent … by Human PNP, 1 mM” value was 0(50) Percent and 0(47) Percent. On E. coli PNP, the “Percent … by E. coli PNP, 100 μM” value is 0(86) Percent; the “Percent … by E. coli PNP, 1 mM” value is listed as 0(21) Percent; the “Substrate quality for bacterial” value is given as “poor substrates”.
